Laboratory results reported in ChEMBL document CHEMBL4665699, “Cytotoxic Diterpenoids from Caryopteris aureoglandulosa” (J Nat Prod, 2020).

Key:
Type in all cases: functional, cell-based
A549 = assay: Cytotoxicity against human A549 cells assessed as reduction in cell viability after 48 hrs by CCK8 assay; settings: A549, 48 h
NCI-H460 = assay: Cytotoxicity against human NCI-H460 cells assessed as reduction in cell viability after 48 hrs by CCK8 assay; settings: NCI-H460, 48 h
PC-9 = assay: Cytotoxicity against human PC-9 cells assessed as reduction in cell viability after 48 hrs by CCK8 assay; settings: PC-9, 48 h
NCI-H1650 = assay: Cytotoxicity against human NCI-H1650 cells assessed as reduction in cell viability after 48 hrs by CCK8 assay; settings: NCI-H1650, 48 h
[1] = Cytotoxicity against human 95-D cells assessed as reduction in cell viability after 48 hrs by CCK8 assay

SMILES | IC50 (A549) | IC50 (NCI-H460) | IC50 (PC-9) | IC50 (NCI-H1650) | IC50 [1]
C[C@@]12CC[C@@H](OC1=O)c1c2cc(O)c2c1C(=O)c1oc(CO)cc1C2=O | 4.8 µM | > 10 µM | > 10 µM | 1.6 µM | 3.9 µM
Cc1cc2c(o1)C(=O)c1cc3c(c(O)c1C2=O)C(=O)CCCC3(C)C | 10.4 µM | > 10 µM | 8.2 µM | 5.4 µM | > 10 µM
O=c1[nH]cc(F)c(=O)[nH]1 [FLUOROURACIL] | > 10 µM | 9.9 µM | > 10 µM | > 10 µM | > 10 µM
